Data: paper PMC10239507, “Development of allosteric and selective CDK2 inhibitors for contraception with negative cooperativity to cyclin binding” (Nature Communications, 2023)

Experiments:
Experiment in all cases: biochemical
[1] = target: T1, 371 kinases (kinase named in each endpoint) (Homo sapiens, UniProt O14757); details: CHK1
T1 construct: purchased Reaction Biology

[2] = target: T2, 371 kinases (kinase named in each endpoint) (Homo sapiens, UniProt O75460); details: ERN1/IRE1
T2 construct: purchased Reaction Biology

[3] = target: T3, 371 kinases (kinase named in each endpoint) (Homo sapiens, UniProt O75582); details: MSK1/RPS6KA5
T3 construct: purchased Reaction Biology

[4] = target: T4, 371 kinases (kinase named in each endpoint) (Homo sapiens, UniProt O95382); details: MEKK6
T4 construct: purchased Reaction Biology

[5] = target: T5, 371 kinases (kinase named in each endpoint) (Homo sapiens, UniProt P06239); details: LCK
T5 construct: purchased Reaction Biology

[6] = target: T6, 371 kinases (kinase named in each endpoint) (Homo sapiens, UniProt P12931); details: C-SRC
T6 construct: purchased Reaction Biology

[7] = target: T7, 371 kinases (kinase named in each endpoint) (Homo sapiens, UniProt P17252); details: PKCA
T7 construct: purchased Reaction Biology

[8] = target: T8, 371 kinases (kinase named in each endpoint) (Homo sapiens, UniProt P22455); details: FGFR4
T8 construct: purchased Reaction Biology

[9] = target: T9, 371 kinases (kinase named in each endpoint) (Homo sapiens, UniProt P28482); details: ERK2/MAPK1
T9 construct: purchased Reaction Biology

[10] = target: T10, 371 kinases (kinase named in each endpoint) (Homo sapiens, UniProt P35916); details: FLT4/VEGFR3
T10 construct: purchased Reaction Biology

[11] = target: T11, 371 kinases (kinase named in each endpoint) (Homo sapiens, UniProt P36894); details: ALK3/BMPR1A
T11 construct: purchased Reaction Biology

[12] = target: T12, 371 kinases (kinase named in each endpoint) (Homo sapiens, UniProt P42681); details: TXK
T12 construct: purchased Reaction Biology

[13] = target: T13, 371 kinases (kinase named in each endpoint) (Homo sapiens, UniProt P42685); details: FRK/PTK5
T13 construct: purchased Reaction Biology

[14] = target: T14, 371 kinases (kinase named in each endpoint) (Homo sapiens, UniProt P43403); details: ZAP70
T14 construct: purchased Reaction Biology

[15] = target: T15, 371 kinases (kinase named in each endpoint) (Homo sapiens, UniProt P43405); details: SYK
T15 construct: purchased Reaction Biology

[16] = target: T16, 371 kinases (kinase named in each endpoint) (Homo sapiens, UniProt P80192); details: MLK1/MAP3K9
T16 construct: purchased Reaction Biology

[17] = target: T17, 371 kinases (kinase named in each endpoint) (Homo sapiens, UniProt Q08881); details: ITK
T17 construct: purchased Reaction Biology

[18] = target: T18, 371 kinases (kinase named in each endpoint) (Homo sapiens, UniProt Q13237); details: PKG2/PRKG2
T18 construct: purchased Reaction Biology

[19] = target: T19, 371 kinases (kinase named in each endpoint) (Homo sapiens, UniProt Q13464); details: ROCK1
T19 construct: purchased Reaction Biology

[20] = target: T20, 371 kinases (kinase named in each endpoint) (Homo sapiens, UniProt Q13627); details: DYRK1/DYRK1A
T20 construct: purchased Reaction Biology

[21] = target: T21, 371 kinases (kinase named in each endpoint) (Homo sapiens, UniProt Q14289); details: PYK2
T21 construct: purchased Reaction Biology

[22] = target: T22, 371 kinases (kinase named in each endpoint) (Homo sapiens, UniProt Q16620); details: TRKB
T22 construct: purchased Reaction Biology

[23] = target: T23, 371 kinases (kinase named in each endpoint) (Homo sapiens, UniProt Q32MK0); details: MYLK3
T23 construct: purchased Reaction Biology

[24] = target: T24, 371 kinases (kinase named in each endpoint) (Homo sapiens, UniProt Q8N568); details: DCAMKL2
T24 construct: purchased Reaction Biology

[25] = target: T25, 371 kinases (kinase named in each endpoint) (Homo sapiens, UniProt Q8TD19); details: NEK9
T25 construct: purchased Reaction Biology

[26] = target: T26, 371 kinases (kinase named in each endpoint) (Homo sapiens, UniProt Q8TF76); details: HASPIN
T26 construct: purchased Reaction Biology

[27] = target: T27, 371 kinases (kinase named in each endpoint) (Homo sapiens, UniProt Q96NX5); details: CAMK1G
T27 construct: purchased Reaction Biology

[28] = target: T28, 371 kinases (kinase named in each endpoint) (Homo sapiens, UniProt Q96SB4); details: SRPK1
T28 construct: purchased Reaction Biology

[29] = target: T29, 371 kinases (kinase named in each endpoint) (Homo sapiens, UniProt Q99986); details: VRK1
T29 construct: purchased Reaction Biology

[30] = target: T30, 371 kinases (kinase named in each endpoint) (Homo sapiens, UniProt Q9BXA7); details: STK22D/TSSK1
T30 construct: purchased Reaction Biology

[31] = target: T31, 371 kinases (kinase named in each endpoint) (Homo sapiens, UniProt Q9H1R3); details: MLCK2/MYLK2
T31 construct: purchased Reaction Biology

[32] = target: T32, 371 kinases (kinase named in each endpoint) (Homo sapiens, UniProt Q9H4B4); details: PLK3
T32 construct: purchased Reaction Biology

[33] = target: T33, 371 kinases (kinase named in each endpoint) (Homo sapiens, UniProt Q9P0L2); details: MARK1
T33 construct: purchased Reaction Biology

[34] = target: T34, 371 kinases (kinase named in each endpoint) (Homo sapiens, UniProt Q9UEW8); details: STK39/STLK3
T34 construct: purchased Reaction Biology

[35] = target: T35, 371 kinases (kinase named in each endpoint) (Homo sapiens, UniProt Q9UQB9); details: AURORA C
T35 construct: purchased Reaction Biology

[36] = target: T36, 371 kinases (kinase named in each endpoint) (Homo sapiens, UniProt Q9UQM7); details: CAMK2A
T36 construct: purchased Reaction Biology

[37] = target: T37, 371 kinases (kinase named in each endpoint) (Homo sapiens, UniProt Q9Y463); details: DYRK1B
T37 construct: purchased Reaction Biology

T28 sequence (Q96SB4 whole entry): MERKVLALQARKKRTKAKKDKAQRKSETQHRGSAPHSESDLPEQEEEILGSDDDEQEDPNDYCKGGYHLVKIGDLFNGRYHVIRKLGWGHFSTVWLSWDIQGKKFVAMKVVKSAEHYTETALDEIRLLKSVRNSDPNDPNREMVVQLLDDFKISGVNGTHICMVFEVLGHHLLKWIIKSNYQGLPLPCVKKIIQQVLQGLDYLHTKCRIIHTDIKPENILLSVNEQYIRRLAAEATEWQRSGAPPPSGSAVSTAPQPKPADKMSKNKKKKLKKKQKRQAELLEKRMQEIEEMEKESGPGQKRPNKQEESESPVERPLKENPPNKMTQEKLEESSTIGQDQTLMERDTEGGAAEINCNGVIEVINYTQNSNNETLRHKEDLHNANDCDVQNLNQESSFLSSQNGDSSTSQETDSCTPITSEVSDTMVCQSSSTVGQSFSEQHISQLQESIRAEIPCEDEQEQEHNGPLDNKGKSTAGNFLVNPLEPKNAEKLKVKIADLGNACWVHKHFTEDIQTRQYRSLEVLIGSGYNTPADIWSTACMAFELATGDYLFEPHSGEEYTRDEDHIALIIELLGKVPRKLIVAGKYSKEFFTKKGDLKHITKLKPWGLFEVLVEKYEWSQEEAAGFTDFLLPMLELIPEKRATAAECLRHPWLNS
T32 sequence (Q9H4B4 whole entry): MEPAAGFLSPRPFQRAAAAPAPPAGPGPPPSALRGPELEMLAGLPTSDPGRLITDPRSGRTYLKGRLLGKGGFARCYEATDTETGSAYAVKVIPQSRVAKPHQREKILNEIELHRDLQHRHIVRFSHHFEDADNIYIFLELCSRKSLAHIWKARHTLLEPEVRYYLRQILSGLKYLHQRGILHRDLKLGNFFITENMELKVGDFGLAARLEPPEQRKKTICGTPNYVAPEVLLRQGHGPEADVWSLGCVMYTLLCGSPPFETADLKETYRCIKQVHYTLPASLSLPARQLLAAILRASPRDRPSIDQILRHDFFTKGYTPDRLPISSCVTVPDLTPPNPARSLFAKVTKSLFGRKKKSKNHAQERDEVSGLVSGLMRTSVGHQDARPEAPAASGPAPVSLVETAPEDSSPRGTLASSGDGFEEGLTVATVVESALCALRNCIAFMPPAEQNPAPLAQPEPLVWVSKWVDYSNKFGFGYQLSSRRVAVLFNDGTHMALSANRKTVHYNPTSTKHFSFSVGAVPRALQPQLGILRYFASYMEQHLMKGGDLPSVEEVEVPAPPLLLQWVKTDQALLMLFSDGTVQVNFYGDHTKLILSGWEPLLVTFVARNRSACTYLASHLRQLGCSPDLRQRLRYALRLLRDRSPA
T33 sequence (Q9P0L2 whole entry): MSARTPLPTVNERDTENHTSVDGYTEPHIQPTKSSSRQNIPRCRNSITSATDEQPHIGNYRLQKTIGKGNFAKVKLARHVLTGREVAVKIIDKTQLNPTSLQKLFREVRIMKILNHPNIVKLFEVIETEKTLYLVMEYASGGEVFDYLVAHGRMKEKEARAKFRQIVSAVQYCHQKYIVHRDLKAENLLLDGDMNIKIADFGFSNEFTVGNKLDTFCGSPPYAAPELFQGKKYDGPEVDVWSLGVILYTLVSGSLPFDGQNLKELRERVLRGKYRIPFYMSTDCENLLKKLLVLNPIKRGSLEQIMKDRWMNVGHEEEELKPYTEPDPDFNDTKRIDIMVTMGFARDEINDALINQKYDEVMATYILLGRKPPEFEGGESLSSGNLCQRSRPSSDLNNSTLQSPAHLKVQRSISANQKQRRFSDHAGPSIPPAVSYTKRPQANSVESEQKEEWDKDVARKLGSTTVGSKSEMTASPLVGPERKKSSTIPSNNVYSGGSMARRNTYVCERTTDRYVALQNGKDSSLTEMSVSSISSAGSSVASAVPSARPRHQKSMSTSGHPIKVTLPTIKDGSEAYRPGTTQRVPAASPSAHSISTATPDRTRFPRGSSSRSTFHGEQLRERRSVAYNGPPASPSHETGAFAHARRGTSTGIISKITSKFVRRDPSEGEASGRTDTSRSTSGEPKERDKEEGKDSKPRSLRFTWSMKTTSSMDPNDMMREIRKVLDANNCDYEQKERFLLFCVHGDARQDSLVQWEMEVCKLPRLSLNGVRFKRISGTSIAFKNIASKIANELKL
T6 sequence (P12931 whole entry): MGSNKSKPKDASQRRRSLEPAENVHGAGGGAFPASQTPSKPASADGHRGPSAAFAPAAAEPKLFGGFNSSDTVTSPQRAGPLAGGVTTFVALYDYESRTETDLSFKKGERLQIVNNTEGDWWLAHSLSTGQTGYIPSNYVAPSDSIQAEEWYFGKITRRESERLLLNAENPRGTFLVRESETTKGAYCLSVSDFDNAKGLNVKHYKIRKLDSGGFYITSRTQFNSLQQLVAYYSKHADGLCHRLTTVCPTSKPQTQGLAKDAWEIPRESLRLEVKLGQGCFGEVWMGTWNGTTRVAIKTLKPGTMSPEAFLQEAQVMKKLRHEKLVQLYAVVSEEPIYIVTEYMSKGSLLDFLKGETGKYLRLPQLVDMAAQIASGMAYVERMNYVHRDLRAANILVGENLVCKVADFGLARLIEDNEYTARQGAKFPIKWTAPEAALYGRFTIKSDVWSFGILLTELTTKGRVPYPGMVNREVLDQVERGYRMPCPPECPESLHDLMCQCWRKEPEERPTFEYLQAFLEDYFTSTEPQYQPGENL
T9 sequence (P28482 whole entry): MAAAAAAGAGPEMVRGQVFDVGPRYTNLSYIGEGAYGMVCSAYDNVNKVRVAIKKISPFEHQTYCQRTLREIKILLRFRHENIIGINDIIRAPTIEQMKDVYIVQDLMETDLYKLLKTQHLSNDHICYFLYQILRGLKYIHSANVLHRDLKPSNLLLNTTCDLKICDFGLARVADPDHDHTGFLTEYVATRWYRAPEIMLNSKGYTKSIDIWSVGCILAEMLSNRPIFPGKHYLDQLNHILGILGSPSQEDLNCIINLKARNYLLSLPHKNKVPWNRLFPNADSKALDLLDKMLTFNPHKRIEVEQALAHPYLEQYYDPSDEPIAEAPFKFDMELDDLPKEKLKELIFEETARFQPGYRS
T18 sequence (Q13237 whole entry): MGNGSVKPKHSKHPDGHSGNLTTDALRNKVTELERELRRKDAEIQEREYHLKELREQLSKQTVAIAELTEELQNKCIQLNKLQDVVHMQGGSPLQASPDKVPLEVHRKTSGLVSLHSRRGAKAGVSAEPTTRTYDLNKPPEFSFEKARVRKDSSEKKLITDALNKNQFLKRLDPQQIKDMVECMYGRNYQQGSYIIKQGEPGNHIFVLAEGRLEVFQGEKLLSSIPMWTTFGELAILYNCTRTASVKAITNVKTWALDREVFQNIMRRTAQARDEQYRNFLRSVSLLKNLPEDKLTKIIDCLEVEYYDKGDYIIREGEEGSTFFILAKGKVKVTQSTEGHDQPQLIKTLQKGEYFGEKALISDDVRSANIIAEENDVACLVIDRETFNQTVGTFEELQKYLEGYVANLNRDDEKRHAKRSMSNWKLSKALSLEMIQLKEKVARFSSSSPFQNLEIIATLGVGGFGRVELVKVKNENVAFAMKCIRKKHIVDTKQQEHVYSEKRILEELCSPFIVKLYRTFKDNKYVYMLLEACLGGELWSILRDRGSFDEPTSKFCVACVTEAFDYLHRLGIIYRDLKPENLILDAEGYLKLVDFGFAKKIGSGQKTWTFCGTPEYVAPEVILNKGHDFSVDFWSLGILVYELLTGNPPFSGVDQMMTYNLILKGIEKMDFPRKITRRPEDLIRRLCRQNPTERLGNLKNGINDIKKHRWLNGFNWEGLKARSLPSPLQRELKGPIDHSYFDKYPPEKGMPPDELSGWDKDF
T13 sequence (P42685 whole entry): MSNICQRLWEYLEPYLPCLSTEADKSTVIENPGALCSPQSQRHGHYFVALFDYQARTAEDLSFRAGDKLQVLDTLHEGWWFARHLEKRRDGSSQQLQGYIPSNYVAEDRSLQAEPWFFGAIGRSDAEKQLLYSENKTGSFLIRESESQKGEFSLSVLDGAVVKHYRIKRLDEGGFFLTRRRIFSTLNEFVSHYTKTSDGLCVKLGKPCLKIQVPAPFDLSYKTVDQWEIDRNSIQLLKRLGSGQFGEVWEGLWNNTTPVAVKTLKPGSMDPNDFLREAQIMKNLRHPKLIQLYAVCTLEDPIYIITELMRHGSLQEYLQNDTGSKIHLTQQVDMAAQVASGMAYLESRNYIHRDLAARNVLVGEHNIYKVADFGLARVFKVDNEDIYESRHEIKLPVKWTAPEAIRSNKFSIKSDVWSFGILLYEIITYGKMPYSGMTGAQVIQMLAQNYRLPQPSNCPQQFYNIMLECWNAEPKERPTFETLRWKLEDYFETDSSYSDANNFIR
T31 sequence (Q9H1R3 whole entry): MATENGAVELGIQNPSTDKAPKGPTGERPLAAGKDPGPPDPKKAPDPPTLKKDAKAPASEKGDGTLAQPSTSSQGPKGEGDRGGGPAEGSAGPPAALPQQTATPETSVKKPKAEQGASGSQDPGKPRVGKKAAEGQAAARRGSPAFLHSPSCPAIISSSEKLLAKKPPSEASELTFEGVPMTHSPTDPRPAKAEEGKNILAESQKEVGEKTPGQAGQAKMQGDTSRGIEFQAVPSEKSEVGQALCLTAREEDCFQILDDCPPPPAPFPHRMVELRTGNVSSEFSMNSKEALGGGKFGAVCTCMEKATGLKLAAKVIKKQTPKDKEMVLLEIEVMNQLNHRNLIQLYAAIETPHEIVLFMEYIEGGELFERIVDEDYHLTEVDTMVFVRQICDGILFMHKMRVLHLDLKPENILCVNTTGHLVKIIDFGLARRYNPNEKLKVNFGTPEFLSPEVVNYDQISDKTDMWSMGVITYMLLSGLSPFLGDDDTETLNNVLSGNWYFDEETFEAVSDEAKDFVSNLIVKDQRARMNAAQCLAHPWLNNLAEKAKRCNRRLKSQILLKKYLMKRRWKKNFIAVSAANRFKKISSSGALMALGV

O=C(O)c1cc(C(F)(F)F)ccc1NCCc1c[nH]c2cc(Br)ccc12 [Compound 5, 2-((2-(6-Bromo-1H-indol-3-yl)ethyl)amino)−5-(trifluoromethyl)benzoic Acid]
activity at 10 µM [1]: 95.2 ± 1.2%
activity at 10 µM [2]: 101 ± 0.6%
activity at 10 µM [3]: 82.2 ± 0.5%
activity at 10 µM [4]: 108 ± 1.4%
activity at 10 µM [5]: 76.5 ± 2.7%
activity at 10 µM [6]: 95.1 ± 0.2%
activity at 10 µM [7]: 123 ± 5.3%
activity at 10 µM [8]: 63.4 ± 6.7%
activity at 10 µM [9]: 118 ± 3%
activity at 10 µM [10]: 102 ± 3.7%
activity at 10 µM [11]: 71.1 ± 2%
activity at 10 µM [12]: 80.5 ± 0.4%
activity at 10 µM [13]: 90.1 ± 1.1%
activity at 10 µM [14]: 95.1 ± 1.6%
activity at 10 µM [15]: 85.8 ± 1.6%
activity at 10 µM [16]: 95.8 ± 0.2%
activity at 10 µM [17]: 127 ± 0.1%
activity at 10 µM [18]: 117 ± 7.9%
activity at 10 µM [19]: 93.3 ± 1.1%
activity at 10 µM [20]: 80 ± 5.9%
activity at 10 µM [21]: 75.6 ± 1.9%
activity at 10 µM [22]: 45.4 ± 7.4%
activity at 10 µM [23]: 90.9 ± 3.2%
activity at 10 µM [24]: 101.3 ± 0.6%
activity at 10 µM [25]: 117 ± 3.3%
activity at 10 µM [26]: 59.9 ± 1.3%
activity at 10 µM [27]: 40.8 ± 2.3%
activity at 10 µM [28]: 91.3 ± 0.5%
activity at 10 µM [29]: 105 ± 1.5%
activity at 10 µM [30]: 103.5 ± 0.1%
activity at 10 µM [31]: 70.7 ± 0.3%
activity at 10 µM [32]: 79.3 ± 3.7%
activity at 10 µM [33]: 93.3 ± 0.5%
activity at 10 µM [34]: 113.4 ± 0.1%
activity at 10 µM [35]: 98 ± 0.2%
activity at 10 µM [36]: 70.2 ± 3.3%
activity at 10 µM [37]: 64.8 ± 1.1%
